From patent US20230085307A1, “PYRIDAZINONE COMPOUND AND HERBICIDE” (NISSAN CHEMICAL CORPORATION, priority 2019, published 2023) come the findings set out here.

SMILES strings stand for the structures.

The test system of one assay is southern crabgrass. Nature of the assay: Test Example 4: herbicidal effect by soil treatment (Table 19, symbol F). The class given is in vivo, southern crabgrass (Digitaria ciliaris). The conditions noted are these: amount of applied herbicide 320 g/ha. Summed up:
(§1)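 Seeds were sown in sterilized diluvial soil and covered with about 1.5 cm of soil. An emulsion formulation diluted with water to a predetermined herbicide amount was sprayed evenly onto the soil surface. Plants grew in a greenhouse at 25° C. to 30° C., and the effect was scored three weeks after application using criteria from an earlier test.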

For assay [1], the system named is redroot pigweed. Briefly: Test Example 5: herbicidal effect by foliage application, plastic box (Table 20, symbol N). The class given is in vivo, redroot pigweed (Amaranthus retroflexus). The note with it: foliage application, 320 g/ha, three weeks after application. In a few lines:
(§2)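 Plants sown in sterilized diluvial soil and grown 14 days in a greenhouse at 25° C to 30° C, then sprayed on the foliage with the compound's emulsion diluted in water to a predetermined herbicide amount. Injury to weeds and crops scored three weeks after application on a visual rating scale.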

The subject of assay [2] is Japanese bulrush. Nature of the assay: Test Example 2: herbicidal activity, application during weed generation under submerged conditions (Table 17, symbol B). The class given is in vivo, Japanese bulrush (Schoenoplectus juncoides). The conditions noted are these: AAH 320 g/ha; application during weed generation, submerged conditions. Summed up:
(§3)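 Mixed weed seedlings in alluvial soil under a 4 cm water layer, greenhouse-grown at 25–30° C. Compound given as a diluted emulsion into the floodwater at the 1–2 leaf stage; response graded after three weeks.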

In assay [3] the test system is barnyard grass. Briefly: Test Example 4: herbicidal effect by soil treatment (Table 19, symbol H). The conditions noted are these: amount of applied herbicide 320 g/ha. The class given is in vivo, barnyard grass (Echinochloa crus-galli). Summed up:
as §1

Assay [4] deals with false cleavers. Nature of the assay: Test Example 5: herbicidal effect by foliage application, plastic box (Table 20, symbol Q). In kind it is in vivo, false cleavers (Galium spurium). The conditions noted are these: foliage application, 320 g/ha, three weeks after application. In a few lines:
as §2

The test system of assay [5] is false cleavers. Briefly: Test Example 4: herbicidal effect by soil treatment (Table 19, symbol Q). In kind it is in vivo, false cleavers (Galium spurium). The note with it: amount of applied herbicide 320 g/ha. In a few lines:
as §1

For a further assay, the system named is late watergrass. Briefly: Test Example 1: herbicidal activity, application before weed generation under submerged conditions (Table 16, symbol A). The class given is in vivo, late watergrass (Echinochloa oryzicola). The note with it: amount of applied herbicide 320 g/ha. In a few lines: (§4)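 Emulsion formulation, water-diluted to set dose, was put onto the flooded surface (4 cm depth, alluvial soil) the same day weeds were sown and 2.5-leaf rice transplanted. After 3 weeks at 25-30 °C under glass, each species was rated 0 (≤5% kill) to 5 (≥90% kill).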

The next assay relates to chickweed. Nature of the assay: Test Example 5: herbicidal effect by foliage application, plastic box (Table 20, symbol P). The class given is in vivo, common chickweed (Stellaria media). The conditions noted are these: foliage application, 320 g/ha, three weeks after application. In a few lines:
as §2

Assay [6] concerns Japanese bulrush. Nature of the assay: Test Example 1: herbicidal activity, application before weed generation under submerged conditions (Table 16, symbol B). In kind it is in vivo, Japanese bulrush (Schoenoplectus juncoides). The conditions noted are these: amount of applied herbicide 320 g/ha. In a few lines: as §4
The subject of assay [7] is barnyard grass. Briefly: Test Example 5: herbicidal effect by foliage application, plastic box (Table 20, symbol H). The note with it: foliage application, 320 g/ha, three weeks after application. The class given is in vivo, barnyard grass (Echinochloa crus-galli). Summed up: as §2
Assay [8] deals with blackgrass. Nature of the assay: Test Example 5: herbicidal effect by foliage application, plastic box (Table 20, symbol J). The class given is in vivo, blackgrass (Alopecurus myosuroides). The conditions noted are these: foliage application, 320 g/ha, three weeks after application. In a few lines:
as §2

Assay [9] concerns blackgrass. Nature of the assay: Test Example 4: herbicidal effect by soil treatment (Table 19, symbol J). The note with it: amount of applied herbicide 320 g/ha. The class given is in vivo, blackgrass (Alopecurus myosuroides). Summed up:
as §1

Another assay relates to Italian ryegrass. Briefly: Test Example 4: herbicidal effect by soil treatment (Table 19, symbol K). The conditions noted are these: amount of applied herbicide 320 g/ha. In kind it is in vivo, Italian ryegrass (Lolium multiflorum). Summed up:
as §1

The next assay concerns green foxtail. Briefly: Test Example 5: herbicidal effect by foliage application, plastic box (Table 20, symbol G). The class given is in vivo, green foxtail (Setaria viridis). The note with it: foliage application, 320 g/ha, three weeks after application. In a few lines: as §2
Assay [10] has as its system wild oat. Nature of the assay: Test Example 4: herbicidal effect by soil treatment (Table 19, symbol I). The class given is in vivo, wild oat (Avena fatua). The note with it: amount of applied herbicide 320 g/ha. In a few lines:
as §1

The subject of a further assay is oval-leafed pondweed. Briefly: Test Example 2: herbicidal activity, application during weed generation under submerged conditions (Table 17, symbol C). In kind it is in vivo, oval-leafed pondweed (Monochoria vaginalis). The note with it: AAH 320 g/ha; application during weed generation, submerged conditions. Summed up:
as §3

Assay [11] relates to wild oat. Nature of the assay: Test Example 5: herbicidal effect by foliage application, plastic box (Table 20, symbol I). In kind it is in vivo, wild oat (Avena fatua). The note with it: foliage application, 320 g/ha, three weeks after application. Summed up:
as §2

The subject of assay [12] is redroot pigweed. Briefly: Test Example 4: herbicidal effect by soil treatment (Table 19, symbol N). In kind it is in vivo, redroot pigweed (Amaranthus retroflexus). The conditions noted are these: amount of applied herbicide 320 g/ha. In a few lines: as §1

Consider `COc1ccccc1-c1sc2cc(F)ccc2c1-c1c(O)c(C)nn(C)c1=O` [3-003], for which the “herbicidal effect, F: southern crabgrass” value in the assay with southern crabgrass was 4 (Herbicidal rate of 70% or more and less than 90%). Also, the “N: redroot pigweed, herbicidal effect grade” value in the assay with redroot pigweed [1] was 5 (Herbicidal rate of 90% or more (almost completely withered)). In the assay on Japanese bulrush [2], the “herbicidal effect rating, B: Japanese bulrush” value (from here on “herbicidal effect rating, B”) is 3 (Herbicidal rate of 40% or more and less than 70%). Besides, in the assay on barnyard grass [3], the “herbicidal effect, H: barnyard grass” value was 4 (Herbicidal rate of 70% or more and less than 90%). For the same molecule, the “Q: false cleavers, herbicidal effect grade” value with false cleavers [4] was 5 (Herbicidal rate of 90% or more (almost completely withered)). Further, the “herbicidal effect, Q: false cleavers” value in the assay with false cleavers [5] is 4 (Herbicidal rate of 70% or more and less than 90%). The “Herbicidal effect, A: late watergrass” value in the assay with late watergrass is 3 (Herbicidal rate of 40% or more and less than 70%). In the assay with chickweed, the “P: chickweed, herbicidal effect grade” value is recorded as 5 (Herbicidal rate of 90% or more (almost completely withered)). The “Herbicidal effect, B: Japanese bulrush” value with Japanese bulrush [6] was 4 (Herbicidal rate of 70% or more and less than 90%). In addition, the “H: barnyard grass, herbicidal effect grade” value with barnyard grass [7] is recorded as 5 (Herbicidal rate of 90% or more (almost completely withered)). The “J: blackgrass, herbicidal effect grade” value in the assay on blackgrass [8] is listed as 5 (Herbicidal rate of 90% or more (almost completely withered)). Also, the “herbicidal effect, J: blackgrass” value in the assay on blackgrass [9] is 3 (Herbicidal rate of 40% or more and less than 70%). Besides, the “herbicidal effect, K: Italian ryegrass” value in the assay on Italian ryegrass is 4 (Herbicidal rate of 70% or more and less than 90%). Further, the “G: green foxtail, herbicidal effect grade” value (“G: green foxtail” below) in the assay with green foxtail was 5 (Herbicidal rate of 90% or more (almost completely withered)). The “herbicidal effect, I: wild oat” value with wild oat [10] is 4 (Herbicidal rate of 70% or more and less than 90%). In addition, in the assay on oval-leafed pondweed, the “herbicidal effect rating, C: oval-leafed pondweed” value (from here on “herbicidal effect rating, C”) is 4 (Herbicidal rate of 70% or more and less than 90%). Further, in the assay on wild oat [11], the “I: wild oat, herbicidal effect grade” value is 5 (Herbicidal rate of 90% or more (almost completely withered)). Besides, in the assay on redroot pigweed [12], the “herbicidal effect, N: redroot pigweed” value is 5 (Herbicidal rate of 90% or more (almost completely withered)).

As to `CCOc1ccccc1-c1sc2cc(F)ccc2c1-c1c(O)c(C)nn(C)c1=O` [3-006], the “herbicidal effect, F: southern crabgrass” value in the assay on southern crabgrass is reported as 5 (Herbicidal rate of 90% or more (almost completely withered)). In addition, in the assay on redroot pigweed [1], the “N: redroot pigweed, herbicidal effect grade” value was 5 (Herbicidal rate of 90% or more (almost completely withered)). Further, the “herbicidal effect rating, B” value in the assay with Japanese bulrush [2] is 4 (Herbicidal rate of 70% or more and less than 90%). Besides, the “herbicidal effect, H: barnyard grass” value with barnyard grass [3] was 5 (Herbicidal rate of 90% or more (almost completely withered)). Besides, the “Q: false cleavers, herbicidal effect grade” value with false cleavers [4] is listed as 5 (Herbicidal rate of 90% or more (almost completely withered)). For the same molecule, the “herbicidal effect, Q: false cleavers” value in the assay with false cleavers [5] is recorded as 5 (Herbicidal rate of 90% or more (almost completely withered)). Besides, the “Herbicidal effect, A: late watergrass” value with late watergrass is given as 5 (Herbicidal rate of 90% or more (almost completely withered)). The “P: chickweed, herbicidal effect grade” value with chickweed is recorded as 5 (Herbicidal rate of 90% or more (almost completely withered)). In addition, the “Herbicidal effect, B: Japanese bulrush” value in the assay with Japanese bulrush [6] is recorded as 5 (Herbicidal rate of 90% or more (almost completely withered)). For the same molecule, the “H: barnyard grass, herbicidal effect grade” value with barnyard grass [7] is listed as 5 (Herbicidal rate of 90% or more (almost completely withered)). Also, the “J: blackgrass, herbicidal effect grade” value in the assay on blackgrass [8] is given as 5 (Herbicidal rate of 90% or more (almost completely withered)). Also, the “herbicidal effect, J: blackgrass” value in the assay on blackgrass [9] was 5 (Herbicidal rate of 90% or more (almost completely withered)). For the same molecule, the “herbicidal effect, K: Italian ryegrass” value with Italian ryegrass was 2 (Herbicidal rate of 20% or more and less than 40%). In the assay on green foxtail, the “G: green foxtail” value is 5 (Herbicidal rate of 90% or more (almost completely withered)). Further, the “herbicidal effect, I: wild oat” value in the assay on wild oat [10] was 4 (Herbicidal rate of 70% or more and less than 90%). For the same molecule, the “herbicidal effect rating, C” value with oval-leafed pondweed is 5 (Herbicidal rate of 90% or more (almost completely withered)). For the same molecule, the “I: wild oat, herbicidal effect grade” value with wild oat [11] is 5 (Herbicidal rate of 90% or more (almost completely withered)). Also, the “herbicidal effect, N: redroot pigweed” value in the assay on redroot pigweed [12] is 5 (Herbicidal rate of 90% or more (almost completely withered)).

Take `CCCC(=O)Oc1c(C)nn(C)c(=O)c1-c1c(-c2ccc(OC)cc2)sc2cc(F)ccc12` [3-008]: the “herbicidal effect, F: southern crabgrass” value in the assay on southern crabgrass is on record as 0 (Herbicidal rate of 5% or less (almost no effect)). The “N: redroot pigweed, herbicidal effect grade” value with redroot pigweed [1] is on record as 5 (Herbicidal rate of 90% or more (almost completely withered)). The “herbicidal effect rating, B” value with Japanese bulrush [2] was 2 (Herbicidal rate of 20% or more and less than 40%). Also, in the assay with barnyard grass [3], the “herbicidal effect, H: barnyard grass” value was 0 (Herbicidal rate of 5% or less (almost no effect)). In the assay on false cleavers [4], the “Q: false cleavers, herbicidal effect grade” value was 4 (Herbicidal rate of 70% or more and less than 90%). Besides, the “herbicidal effect, Q: false cleavers” value with false cleavers [5] was 2 (Herbicidal rate of 20% or more and less than 40%). Also, the “Herbicidal effect, A: late watergrass” value in the assay on late watergrass is listed as 5 (Herbicidal rate of 90% or more (almost completely withered)). The “P: chickweed, herbicidal effect grade” value in the assay on chickweed is listed as 5 (Herbicidal rate of 90% or more (almost completely withered)). The “Herbicidal effect, B: Japanese bulrush” value with Japanese bulrush [6] is 5 (Herbicidal rate of 90% or more (almost completely withered)). Moreover, the “H: barnyard grass, herbicidal effect grade” value in the assay with barnyard grass [7] was 4 (Herbicidal rate of 70% or more and less than 90%). The “J: blackgrass, herbicidal effect grade” value in the assay with blackgrass [8] is 1 (Herbicidal rate of 5% or more and less than 20%). Moreover, the “herbicidal effect, J: blackgrass” value in the assay with blackgrass [9] is recorded as 0 (Herbicidal rate of 5% or less (almost no effect)). Moreover, the “herbicidal effect, K: Italian ryegrass” value in the assay with Italian ryegrass is on record as 0 (Herbicidal rate of 5% or less (almost no effect)). For the same molecule, the “G: green foxtail” value in the assay with green foxtail was 3 (Herbicidal rate of 40% or more and less than 70%). In the assay on wild oat [10], the “herbicidal effect, I: wild oat” value is listed as 0 (Herbicidal rate of 5% or less (almost no effect)). The “herbicidal effect rating, C” value in the assay on oval-leafed pondweed was 4 (Herbicidal rate of 70% or more and less than 90%). Besides, in the assay with wild oat [11], the “I: wild oat, herbicidal effect grade” value is on record as 0 (Herbicidal rate of 5% or less (almost no effect)). Also, in the assay on redroot pigweed [12], the “herbicidal effect, N: redroot pigweed” value is on record as 5 (Herbicidal rate of 90% or more (almost completely withered)).
